Biological target: Multidrug resistance-associated protein 1 (Homo sapiens, UniProt P33527)
Assay: TP_TRANSPORTER: uptake in membrane vesicle from MRP1-expressing HeLa cells
Assay type: functional, cell membranes

Multidrug resistance-associated protein 1, sequence (P33527 whole entry): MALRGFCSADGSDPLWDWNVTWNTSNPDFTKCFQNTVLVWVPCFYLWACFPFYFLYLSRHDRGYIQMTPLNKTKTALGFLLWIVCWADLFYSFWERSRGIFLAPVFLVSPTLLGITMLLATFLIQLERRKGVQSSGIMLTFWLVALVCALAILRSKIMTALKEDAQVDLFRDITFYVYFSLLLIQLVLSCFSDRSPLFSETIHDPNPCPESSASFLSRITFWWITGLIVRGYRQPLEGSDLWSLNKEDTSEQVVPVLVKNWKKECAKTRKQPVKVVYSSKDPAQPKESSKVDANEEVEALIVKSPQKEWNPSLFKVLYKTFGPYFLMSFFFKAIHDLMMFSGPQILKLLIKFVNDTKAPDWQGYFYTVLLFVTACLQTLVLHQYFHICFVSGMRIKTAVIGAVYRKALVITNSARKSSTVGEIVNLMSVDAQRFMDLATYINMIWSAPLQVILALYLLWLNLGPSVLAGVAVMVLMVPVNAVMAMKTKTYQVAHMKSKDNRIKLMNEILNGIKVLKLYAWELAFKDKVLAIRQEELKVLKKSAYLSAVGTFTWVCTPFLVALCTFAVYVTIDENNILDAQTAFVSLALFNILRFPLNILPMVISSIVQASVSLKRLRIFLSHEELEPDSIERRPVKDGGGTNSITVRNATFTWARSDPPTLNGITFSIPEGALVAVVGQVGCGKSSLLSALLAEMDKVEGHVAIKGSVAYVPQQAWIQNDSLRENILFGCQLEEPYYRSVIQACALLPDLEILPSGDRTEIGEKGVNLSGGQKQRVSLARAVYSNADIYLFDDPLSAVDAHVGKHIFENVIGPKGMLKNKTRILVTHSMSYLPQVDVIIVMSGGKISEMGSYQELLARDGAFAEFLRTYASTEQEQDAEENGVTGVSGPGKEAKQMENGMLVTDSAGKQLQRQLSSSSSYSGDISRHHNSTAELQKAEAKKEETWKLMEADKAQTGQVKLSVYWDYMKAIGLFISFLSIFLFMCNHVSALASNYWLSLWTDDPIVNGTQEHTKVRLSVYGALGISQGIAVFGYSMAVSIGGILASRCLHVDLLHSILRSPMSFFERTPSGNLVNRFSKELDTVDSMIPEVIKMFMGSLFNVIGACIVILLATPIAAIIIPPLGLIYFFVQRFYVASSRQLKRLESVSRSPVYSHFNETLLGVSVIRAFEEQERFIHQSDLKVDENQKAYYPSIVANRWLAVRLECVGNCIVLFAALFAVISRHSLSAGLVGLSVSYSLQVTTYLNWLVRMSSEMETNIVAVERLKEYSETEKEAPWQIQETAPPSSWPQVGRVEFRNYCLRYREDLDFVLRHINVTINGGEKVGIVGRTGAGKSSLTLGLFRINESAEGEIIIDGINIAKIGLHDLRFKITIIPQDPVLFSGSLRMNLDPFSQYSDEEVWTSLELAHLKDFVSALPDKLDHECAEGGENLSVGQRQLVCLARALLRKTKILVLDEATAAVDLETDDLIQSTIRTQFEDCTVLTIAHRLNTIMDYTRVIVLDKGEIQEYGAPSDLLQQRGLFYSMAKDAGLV

Activity, substrate [+]:
CCCCC/C=C\C\C=C/C=C/C=C/[C@@H](SC[C@H](NC(C)=O)C(=O)O)[C@@H](O)CCCC(=O)O
CCCCC/C=C\C\C=C/C=C/C=C/[C@@H](SC[C@H](N)C(=O)O)[C@@H](O)CCCC(=O)O [LEUKOTRIEN E4]
C[C@H](CCC(=O)O)[C@H]1CC[C@H]2[C@@H]3C[C@H](O[C@@H]4O[C@H](C(=O)O)[C@@H](O)[C@H](O)[C@H]4O)[C@@H]4C[C@H](O)CC[C@]4(C)[C@H]3CC[C@]12C [6alpha-Glucuronosylhyodeoxycholate]
CCCCC/C=C\C\C=C/C=C/C=C/[C@@H](SC[C@H](N)C(=O)NCC(=O)O)[C@@H](O)CCCC(=O)O [LEUKOTRIENE D4]
COc1cc([C@@H]2c3cc4c(cc3[C@@H](O[C@@H]3O[C@@H]5CO[C@@H](C)O[C@H]5[C@H](O)[C@H]3O)[C@H]3COC(=O)[C@H]23)OCO4)cc(OC)c1O[C@@H]1O[C@H](C(=O)O)[C@@H](O)[C@H](O)[C@H]1O [ETOPOSIDE GLUCURONIDE]

Source: ChEMBL document CHEMBL2074072, “Transport of glutathione, glucuronate, and sulfate conjugates by the MRP gene-encoded conjugate export pump” (Cancer Res, 1996)
